Measured values from patent US8658638B2, “Mineralocorticoid receptor antagonist and methods of use” (priority 2009, dated 2014).
pEC50, pIC50: −log10 of the molar value.

Assays:
[1] = target: T1, human androgen receptor (AR) (Homo sapiens, UniProt P10275); experiment: Nuclear hormone receptor panel screen (luciferase reporter, HEK293), AR; format: cell-based
T1 sequence (P10275 1-920): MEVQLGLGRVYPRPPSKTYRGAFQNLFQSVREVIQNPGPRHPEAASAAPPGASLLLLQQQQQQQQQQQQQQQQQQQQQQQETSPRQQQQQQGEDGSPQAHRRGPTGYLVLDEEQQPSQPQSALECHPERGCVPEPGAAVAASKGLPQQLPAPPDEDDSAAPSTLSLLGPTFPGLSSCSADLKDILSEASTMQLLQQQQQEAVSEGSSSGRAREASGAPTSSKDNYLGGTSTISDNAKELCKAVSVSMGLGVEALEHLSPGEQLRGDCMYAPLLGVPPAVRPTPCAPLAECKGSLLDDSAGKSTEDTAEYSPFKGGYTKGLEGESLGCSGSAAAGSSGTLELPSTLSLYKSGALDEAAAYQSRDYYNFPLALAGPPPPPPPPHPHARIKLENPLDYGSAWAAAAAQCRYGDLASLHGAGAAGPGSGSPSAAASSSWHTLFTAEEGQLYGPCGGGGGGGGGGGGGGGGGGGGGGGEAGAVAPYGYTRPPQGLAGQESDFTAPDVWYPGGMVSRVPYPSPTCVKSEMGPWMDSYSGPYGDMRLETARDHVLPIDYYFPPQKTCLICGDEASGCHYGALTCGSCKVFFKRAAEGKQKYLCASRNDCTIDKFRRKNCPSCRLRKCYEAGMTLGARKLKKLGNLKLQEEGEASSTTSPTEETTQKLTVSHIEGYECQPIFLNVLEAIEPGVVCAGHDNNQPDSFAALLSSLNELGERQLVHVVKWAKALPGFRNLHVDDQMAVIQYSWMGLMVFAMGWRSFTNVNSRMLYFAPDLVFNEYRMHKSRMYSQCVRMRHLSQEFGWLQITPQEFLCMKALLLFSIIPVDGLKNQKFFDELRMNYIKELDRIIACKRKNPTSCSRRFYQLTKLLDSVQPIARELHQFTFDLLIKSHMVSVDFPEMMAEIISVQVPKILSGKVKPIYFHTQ
From the text: Aldosterone exerts it physiological effects through interaction with the mineralocorticoid receptor. Following cytoplasmic binding of aldosterone to MR, the ligand receptor complex translocates to the cell nucleus where it binds to hormone response elements on DNA to initiate expression of target genes. […] The solvents, reagents, and ligands employed in the functional assay are readily available from commercial sources, or can be prepared by one of ordinary skill in the art.
Human embryonic kidney HEK293 cells are transfected with steroid hormone receptor and reporter gene plasmids using a suitable transfection reagent such as Fugene™. […] After 24 hours incubation with test compounds, cells are lysed and luciferase activity is determined using standard techniques.
Data are fitted to a four parameter-fit logistic curve to determine EC50 values. […] IC50 values are determined similarly using antagonist mode assay data. In the antagonist mode, percent inhibitions are determined by comparing test compound activity in the presence of low concentration of agonist (0.08 nM aldosterone for MR, 0.25 nM dexamethasone for GR, 0.66 nM of methyltrienolone for AR, and 0.08 nM of promegestone for PR) to the response produced by the same low concentration of agonist in the absence of test compound.

[2] = test system: uni-nephrectomized Sprague Dawley rats; experiment: In vivo model of aldosterone mediated renal disease; settings: 10 mg/kg/day x 28 days, oral gavage, aldosterone infusion, 6% salt diet, rat
Description: Male uni-nephrectomized Sprague Dawley rats (240-280 g) are housed individually with ad lib house water and rodent 5001 diet for one week. After acclimation, baseline 24 h urine samples are collected and analyzed for total urine protein and creatinine. Animals are randomized via body weight and baseline urine protein into study groups. Baseline serum is taken by tail-clip and analyzed for blood urea nitrogen (BUN), creatinine, and electrolytes. After baseline samples are taken, all rats with the exception of the control group are maintained on a diet containing 6% salt, and drinking water containing 0.3% KCl throughout the study duration. […] Alza mini-pumps to deliver 2.5 μl/h×28 days of d-aldosterone in 0.01% DMSO at 0.75 μg/h, s.c. are implanted in non-control animals (e.g Test Compound group and Vehicle only group) under isoflourane anesthesia. Test compound, in a vehicle comprising 1% carboxy methylcellulose (CMC)/0.25% polysorbate 80, or vehicle alone, is then administered by once daily oral gavage (10 mL/kg) beginning the day after aldosterone implantation. Repeat urine samples are collected after 2 and 4 weeks of compound or vehicle alone administration and analyzed for total urine protein and creatinine. At study termination, pharmacokinetic samples are obtained at 8 timepoints (0.5, 1, 2, 3, 6, 8, 12 and 24 h). […]

`O=c1[nH]c2cc(/C=C3\c4ccccc4COc4cc(F)ccc43)ccc2n1[C@@H]1C[C@@H]2COCCN2C1` [Compound (I), 5-((E)-(3-fluorodibenzo[b,e]oxepin-11(6H)-ylidene)methyl)-1-((7R,8aR)-hexahydro-1H-pyrrolo[2,1-c][1,4]oxazin-7-yl)-1H-benzo[d]imidazol-2(3H)-one] was tested, and the pEC50 ([1]; agonist mode) was under 5.00, the pIC50 ([1]; antagonist mode, 0.66 nM methyltrienolone) was under 5.00 and the “reduction of urinary protein excretion compared to vehicle treated animals” value [2] was “about 60%”.
